Reference: paper PMC12386606, “Evaluation of the In Vitro Blood–Brain Barrier Transport of Ferula persica L. Bioactive Compounds” (International Journal of Molecular Sciences, 2025)
Where two headings read alike, the source gives them in different places.

Key:
SH-SY5Y cells = assay: Neuroprotection against H2O2, L-glutamate and Aβ1-42 in differentiated SH-SY5Y cells (MTT); conditions: 24 h
Method: To investigate the neuroprotective potential of AerExt or RootExt, oxidative damage (H2O2), excitotoxic stress (L-glutamate), and Aβ1-42 toxicity were induced in cells and evaluated as described by [58]. Briefly, SH-SY5Y cells were plated as described above, and 24 h after cell attachment, cells were pre-treated with non-toxic concentrations of AerExt or RootExt (40 μg mL^−1 for AerExt; 20 μg mL^−1 for RootExt) for 24 h. In the control group, DMEM/F12 cell medium supplemented with 1% FBS, 100 U mL^−1 penicillin, 100 μg mL^−1 streptomycin, 250 ng mL^−1 antimycotic, and 0.4% ethanol was used. The next day, cells were incubated with either cell medium alone (control), H2O2 (65 μM), L-glutamate (23 mM), or Aβ1-42 (30 μM) for 24 h. Cell viability was assessed by MTT assay at the end of the experiments. All the experiments were repeated three times, and a T-test was applied between the treated and control conditions considering statistically significant differences when p < 0.05.

[1] = oil/water partition coefficient; Table 1; ref PubChem; cited from earlier work
HBMEC cells = assay: Blood–brain barrier transport study in HBMEC Transwell monolayer; conditions: for RootExt Te (%) ± SD 2 h / RootExt Te (%) ± SD 4 h / RootExt Te (%) ± SD 24 h: RootExt 20 µg mL^−1 apical; for RootExt Te (%) ± SD 2 h / RootExt Te (%) ± SD 4 h / RootExt Te (%) ± SD 24 h / AerExt Te (%) ± SD 2 h / AerExt Te (%) ± SD 4 h / AerExt Te (%) ± SD 24 h: n.q. = not quantified in the basolateral compartment; for AerExt Te (%) ± SD 2 h / AerExt Te (%) ± SD 4 h / AerExt Te (%) ± SD 24 h: AerExt 40 µg mL^−1 apical
Method: After the toxicity evaluation, the HBMEC cell line was also used as a simplified in vitro model of the BBB endothelium. Cells were seeded at a density of 1.6 × 10^5 cells/cm^2 in 12-well Transwell® plates (Corning Costar Corp., Corning, USA) with a pore diameter of 0.4 μm, pre-coated with type I rat tail collagen (100 μg mL^−1) [55]. The culture medium was renewed every 2 days until a monolayer cell structure was formed (see Supplementary Figure S2), and transport experiments were initiated after 10 days. In transport experiments, the medium in the apical (upper) compartment of the Transwell system was removed, and 0.5 mL of AerExt or RootExt at a concentration of 40 μg mL^−1 and 20 μg mL^−1, respectively, was added to these compartments (applied in duplicate). Also, a medium containing 0.4% (v/v) ethanol was used as control group. The basolateral (lower) compartments were filled with 1.5 mL of fresh culture medium. The cells were incubated under these conditions for 2, 4, and 24 h.
At the end of the incubation periods, media samples were collected from both chambers and lyophilized using a freeze-drying system from Martin Christ (Osterode am Harz, Germany). The samples were stored at −80 °C until analysis. The collected samples were subjected to chemical analyses to evaluate the ability of bioactive compounds contained in the extracts to pass through the cell monolayer.
The transport efficiency (Te) of bioactive substances was calculated based on Equation (3), described by [56]:Te (%) = CLower/CUpper × 100(3)
This calculation was performed to understand whether the compound crosses the cell layer and how efficiently it is transported.
For this purpose, 0.2 mL of cold water (H2O) was added to the samples, and the samples were vortexed for 10 s. Then, 0.8 mL of cold methanol was added and vortexed again for 10 s. Then, the mixture was centrifuged at 14,000 rpm for 5 min, and the supernatant was carefully transferred to a 1.5 mL Eppendorf tube and dried in a SpeedVac device at 40 °C and 13 bar pressure. Finally, the dried samples were resuspended in 25 μL of pure ethanol for their subsequent analysis.
For HPLC-Q-TOF MS/MS analysis, aliquots of 2 μL were injected into an HPLC model 1290 coupled to a Q-TOF series 6540 (Agilent Technologies, Waldbronn, Germany). For GC-Q-TOF MS analysis, aliquots of 1 μL were injected with a split ratio of 1:10 into a GC model 7890B coupled to a Q-TOF series 7200 (Agilent Technologies, Waldbronn, Germany). The HPLC-MS and GC-MS chromatograms were processed using the Agilent Mass Hunter Qualitative software (version B.10.0) to verify the retention time and exact mass of the compounds previously reported by us [25] and to extract their peak area to calculate the BBB permeability.

[2] = Parallel artificial membrane permeability assay for the blood–brain barrier (PAMPA-BBB); conditions: for AerExt log Pe: compound within AerExt donor solution; for AerExt log Pe / RootExt log Pe: 37 °C, 4 h, PBS pH 7.4, n.q. = not quantified in the acceptor plate; for RootExt log Pe: compound within RootExt donor solution
Method: (§1) The permeability of bioactive compounds from AerExt and RootExt across the BBB was assessed using the PAMPA-BBB assay, following the methodology described by [11]. Firstly, the BBB solution was prepared by dissolving 8 mg of PBL and 4 mg of cholesterol in 600 μL of n-dodecane. The initial donor solution was prepared by mixing 1 mL of AerExt or RootExt (at 10 mg mL^−1 in EtOH) with 1 mL of buffer (PBS, pH = 7.4, 10 mM). The filter membrane of the donor plate was coated with 5 μL of BBB solution. The acceptor plate was filled with 350 μL of buffer, and the donor plate was carefully placed on top of the acceptor plate to form a “sandwich-like” assembly. Subsequently, 350 μL of the donor solution was added to the donor plate, which was then covered and incubated at 37 °C for 4 h in the dark. After the incubation time, 300 μL of the solution was collected from each plate, transferred into separate vials, and evaporated using a SpeedVac system at 40 °C under 13 mbar pressure. The dried acceptor and donor solutions were dissolved in 50 μL of pure EtOH before being subjected to HPLC-Q-TOF-MS/MS and GC-Q-TOF-MS analysis. Permeability (Pe) across the PAMPA-BBB of the bioactive compound was calculated according to Equation (1) [54], with modifications in concentration rates.Pe = −ln[1 − CA(t)/Cequilibrium]/(A × (1/VD + 1/VA) × t)(1)
(§2) Cequilibrium was calculated according to Equation (2):Cequilibrium = [CD(t) × VD + CA(t) × VA]/(VD + VA)(2)
(§3) The HPLC-MS and GC-MS chromatograms were processed using the Agilent Mass Hunter Qualitative software (version B.10.0) to verify the retention time and exact mass of the compounds previously reported by us [25] and to extract their peak area to calculate the BBB permeability.

[3] = PAMPA
Method: as §1, §2, §3

RootExt Te (%) ± SD 2 h (HBMEC cells) | RootExt Te (%) ± SD 4 h (HBMEC cells) | RootExt Te (%) ± SD 24 h (HBMEC cells) | SMILES | log p [1] | AerExt log Pe [2] | RootExt log Pe [2] | AerExt Te (%) ± SD 2 h (HBMEC cells) | AerExt Te (%) ± SD 4 h (HBMEC cells) | AerExt Te (%) ± SD 24 h (HBMEC cells) | further results
 |  |  | OO [H2O2] |  |  |  |  |  |  | cell viability after neurotoxic agent, compared with control (SH-SY5Y cells; H2O2 65 µM): 48%
 |  |  | N[C@@H](CCC(=O)O)C(=O)O [L-glutamate] |  |  |  |  |  |  | viability at 23000 µM (SH-SY5Y cells; Homo sapiens, read-out: cell viability after neurotoxic agent, compared with control): 47%
n.q. | n.q. | 66.0 ± 3.2% | CC(C)[C@@H]1CC[C@@]2(C)[C@H](O)CC[C@](C)(O)[C@H]2[C@@H]1O[C@@H]1O[C@H](CO)[C@@H](O)[C@H](O)[C@H]1O [Ophiopogonoside A] | 0.4 | n.q. | n.q. |  |  |  | 
 |  |  | Cc1nccc2c1[nH]c1ccccc12 [Harman] | 3.6 |  |  |  |  |  | AerExt Cross BBB Potential [3]: ++ (key: –: not quantified in acceptor; +: log Pe < −6.5; ++: −6.5 < log Pe < −5.5; +++: −5.5 < log Pe < −4.5)
n.q. | n.q. | n.q. | COc1ccc(-c2cc(=O)c3c(OC)c(OC)c(OC)c(OC)c3o2)cc1OC [Nobiletin] | 3.0 |  |  | n.q. | n.q. | n.q. | crossing of the HBMEC-BBB (HBMEC cells; AerExt 40 µg mL^−1 / RootExt 20 µg mL^−1, 2, 4, 24 h): could not cross the HBMEC-BBB; Papp at 4 h ([2]; PAMPA, pH 7.4): 49 ×10⁻⁶ cm/s
 |  |  | COc1cc([C@@H]2OC[C@@H]3[C@H]2CO[C@H]3c2cc(OC)c(O[C@@H]3O[C@H](CO)[C@@H](O)[C@H](O)[C@H]3O)c(OC)c2)cc(OC)c1O[C@@H]1O[C@H](CO)[C@@H](O)[C@H](O)[C@H]1O [Syringaresinol diglucoside] | −1.4 | n.q. | n.q. | n.q. | n.q. | n.q. | 
 |  |  | COc1c(O)cc2oc(-c3ccc(O[C@@H]4O[C@H](CO)[C@@H](O)[C@H](O)[C@H]4O)cc3)cc(=O)c2c1O [Hispidulin 4′-glucoside] |  |  |  |  |  |  | AerExt Cross BBB Potential [3]: + (key: –: not quantified in acceptor; +: log Pe < −6.5; ++: −6.5 < log Pe < −5.5; +++: −5.5 < log Pe < −4.5); AerExt log Pe ([3]; pH 7.4): −6.14
n.q. | n.q. | n.q. | O=C(O)/C=C/c1ccc(O)cc1 [4-coumaric acid] | 1.5 | n.q. | n.q. | n.q. | n.q. | n.q. | 

SMILES | RootExt Te (%) ± SD 2 h (HBMEC cells) | RootExt Te (%) ± SD 4 h (HBMEC cells) | RootExt Te (%) ± SD 24 h (HBMEC cells) | log p [1] | AerExt log Pe [2] | RootExt log Pe [2] | AerExt Te (%) ± SD 2 h (HBMEC cells) | AerExt Te (%) ± SD 4 h (HBMEC cells) | AerExt Te (%) ± SD 24 h (HBMEC cells) | further results
COc1ccc([C@@H]2CC(=O)c3c(O)cc(O[C@@H]4O[C@H](CO[C@@H]5O[C@@H](C)[C@H](O)[C@@H](O)[C@H]5O)[C@@H](O)[C@H](O)[C@H]4O)cc3O2)cc1O [Hesperidin] | n.q. | n.q. | n.q. | −1.1 | n.q. | n.q. | n.q. | n.q. | n.q. | 
